Data on 19 compounds can be found in patent US9890185B2, “Urea derivatives useful as kinase inhibitors” (Respivert Limited, priority 2013, dated 2018).

The structures appear in SMILES notation.

In one assay the test system is HT29 cells. The experiment in a line: IL-1β-induced IL-8 release in HT29 cells (assay d). In kind it is cell-based. Particulars: Homo sapiens, HT-29; IL-1β-stimulated HT29 cells; read-out: IC50 Values for Inhibition of Cytokine Release, HT29 cells IL-8. The procedure: HT29 cells, a human colon adenocarcinoma cell line, are plated in a 96 well plate (24 hrs) and pre-treated with compounds at the desired concentration for 2 hours before addition of 5 ng/mL of IL-1β (Abcam) for 24 hours. Supernatants are harvested for IL-8 quantification by Sandwich ELISA (Duo-set, R&D System). The IC50 is determined from the dose response curve.

Another assay relates to d-U937 cells. The experiment in a line: Accumulation of β catenin in d-U937 cells (assay m). In kind it is cell-based, human. The conditions noted are these: percentage relative to Reference Compound at 1 μg/mL. The essentials:
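Read-out: colourimetric cell-based immunoassay for endogenous β-catenin (OD450 minus 655 reference), normalised to crystal violet absorbance at 595 nm. Test compound or vehicle was applied for 18 hr to U937 monocytes first differentiated with PMA (100 ng/mL) for 48–72 hr.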

Consider `COCCOCCOCCOc1cc(Nc2cc(Oc3ccc(NC(=O)Nc4cc(C(C)(C)C)cc(CS(C)(=O)=O)c4OC)c4ccccc34)ccn2)cc(OC)c1` [15(a), 1-(5-(tert-butyl)-2-methoxy-3-((methylsulfonyl)methyl)phenyl)-3-(4-((2-((3-methoxy-5-(2-(2-(2-methoxyethoxy)ethoxy)ethoxy)phenyl)amino)pyridin-4-yl)oxy)naphthalen-1-yl)urea], for which, in the assay with HT29 cells, the IC50 (commonly the concentration at which inhibition is half-maximal) worked out at 4.2 nM. The results for the “% β-catenin induction” value in the assay with d-U937 cells (test compound 1 μg/mL), with d-U937 cells (test compound 5 μg/mL) and with d-U937 cells (test compound 10 μg/mL) were −4.0%, −5.0% and −3.0%, respectively.
For the compound `COc1c(NC(=O)Nc2ccc(Oc3ccnc(Nc4cccnc4)c3)c3ccccc23)cc(C(C)(C)C)cc1P(C)(C)=O` [15(ad), 1-(5-(tert-butyl)-3-(dimethylphosphoryl)-2-methoxyphenyl)-3-(4-((2-(pyridin-3-ylamino)pyridin-4-yl)oxy)naphthalen-1-yl)urea], the “% β-catenin induction” value is on record as 12.0% in the assay on d-U937 cells (test compound 1 μg/mL), 36.0% in the assay with d-U937 cells (test compound 5 μg/mL) and 49.0% with d-U937 cells (test compound 10 μg/mL).
With `COc1cc(F)cc(Nc2cc(Oc3ccc(NC(=O)Nc4cc(C(C)(C)C)cc(P(C)(C)=O)c4OC)c4ccccc34)ccn2)c1` [15(an), 1-(5-(tert-butyl)-3-(dimethylphosphoryl)-2-methoxyphenyl)-3-(4-((2-((3-fluoro-5-methoxyphenyl)amino)pyridin-4-yl)oxy)naphthalen-1-yl)urea], the “% β-catenin induction” value turned out to be 1.5% in the assay with d-U937 cells (test compound 1 μg/mL), 11.5% in the assay on d-U937 cells (test compound 5 μg/mL) and 13.5% with d-U937 cells (test compound 10 μg/mL).
For `COc1c(NC(=O)Nc2ccc(Oc3ccnc(Nc4cnn(C)n4)n3)c3ccccc23)cc(C(C)(C)C)cc1P(C)(C)=O` [15(x), 1-(5-(tert-butyl)-3-(dimethylphosphoryl)-2-methoxyphenyl)-3-(4-((2-((2-methyl-2H-1,2,3-triazol-4-yl)amino)pyrimidin-4-yl)oxy)naphthalen-1-yl)urea] the same measures were 7.0%, 4.0% and 4.0%.
For `COc1c(CC(N)=O)cc(C(C)(C)C)cc1NC(=O)Nc1ccc(Oc2ccnc(NCc3ccccn3)c2)c2ccccc12` [38(d), 2-(5-(tert-Butyl)-2-methoxy-3-(3-(4-((2-((pyridin-2-ylmethyl)amino)pyridin-4-yl)oxy)naphthalen-1-yl)ureido)phenyl)acetamide], the “% β-catenin induction” value turned out to be 2.5% with d-U937 cells (test compound 1 μg/mL), 19.5% in the assay with d-U937 cells (test compound 5 μg/mL) and 30.0% with d-U937 cells (test compound 10 μg/mL).
For the compound `COc1c(CC(N)=O)cc(C(C)(C)C)cc1NC(=O)Nc1ccc(Oc2ccnc(Nc3cc(C)cc(C)c3)c2)c2ccccc12` [38(f), 2-(5-(tert-Butyl)-3-(3-(4-((2-((3,5-dimethylphenyl)amino)pyridin-4-yl)oxy)naphthalen-1-yl)ureido)-2-methoxyphenyl)acetamide], the IC50 in the assay on HT29 cells worked out at 4.8 nM. In addition, the entries for the “% β-catenin induction” value with d-U937 cells (test compound 1 μg/mL), in the assay on d-U937 cells (test compound 5 μg/mL) and in the assay on d-U937 cells (test compound 10 μg/mL) were 2.0%, 3.3% and 8.3%, respectively.
As to `CNC(=O)Cc1cc(C(C)(C)C)cc(NC(=O)Nc2ccc(Oc3ccnc(Nc4cccc(OC)c4)c3)c3ccccc23)c1OC` [38(h), 2-(5-(tert-Butyl)-2-methoxy-3-(3-(4-((2-((3-methoxyphenyl)amino)pyridin-4-yl)oxy)naphthalen-1-yl)ureido)phenyl)-N-methylacetamide], the “% β-catenin induction” value in the assay with d-U937 cells (test compound 1 μg/mL) was 1.5%; in the assay with d-U937 cells (test compound 5 μg/mL), 4.0%; in the assay on d-U937 cells (test compound 10 μg/mL) it was 6.0%.
On to `COc1cc(Nc2cc(Oc3ccc(NC(=O)Nc4cc(C(C)(C)C)cc(CC(N)=O)c4OC)c4ccccc34)ccn2)ccn1` [38(k), 2-(5-(tert-Butyl)-2-methoxy-3-(3-(4-((2-((2-methoxypyridin-4-yl)amino)pyridin-4-yl)oxy)naphthalen-1-yl)ureido)phenyl)acetamide], for which the “% β-catenin induction” value in the assay on d-U937 cells (test compound 1 μg/mL) was determined as 10.5%; in the assay on d-U937 cells (test compound 5 μg/mL), 39.5%; in the assay with d-U937 cells (test compound 10 μg/mL) it was 52.0%.
As for `COc1cc(CO)cc(Nc2cc(Oc3ccc(NC(=O)Nc4cc(C(C)(C)C)cc(CC(N)=O)c4OC)c4ccccc34)ccn2)c1` [38(m), 2-(5-(tert-Butyl)-3-(3-(4-((2-((3-(hydroxymethyl)-5-methoxyphenyl)amino)pyridin-4-yl)oxy)naphthalen-1-yl)ureido)-2-methoxyphenyl)acetamide], the “% β-catenin induction” value in the assay on d-U937 cells (test compound 1 μg/mL) was determined as 3.0%; with d-U937 cells (test compound 5 μg/mL), 23.0%; in the assay with d-U937 cells (test compound 10 μg/mL) it was 37.0%.
As to `COc1cncc(Nc2cc(Oc3ccc(NC(=O)Nc4cc(C(C)(C)C)cc(CC(N)=O)c4OC)c4ccccc34)ccn2)c1` [38(n), 2-(5-(tert-butyl)-2-methoxy-3-(3-(4-((2-((5-methoxypyridin-3-yl)amino)pyridin-4-yl)oxy)naphthalen-1-yl)ureido)phenyl)acetamide], the “% β-catenin induction” value in the assay with d-U937 cells (test compound 1 μg/mL) was 2.0%; in the assay on d-U937 cells (test compound 5 μg/mL) it was 21.0%; in the assay on d-U937 cells (test compound 10 μg/mL) it was 23.5%.
For `COc1c(CC(N)=O)cc(C(C)(C)C)cc1NC(=O)Nc1ccc(Oc2ccnc(Nc3ccn(C)n3)c2)c2ccccc12` [38(o), 2-(5-(tert-Butyl)-2-methoxy-3-(3-(4-((2-((1-methyl-1H-pyrazol-3-yl)amino)pyridin-4-yl)oxy)naphthalen-1-yl)ureido)phenyl)acetamide] the same measures were 13.0%, 38.0% and 35.0%.
With `COc1c(CNC(C)=O)cc(C(C)(C)C)cc1NC(=O)Nc1ccc(Oc2ccnc(NCc3ccccn3)c2)c2ccccc12` [38(q), N-(5-(tert-Butyl)-2-methoxy-3-(3-(4-((2-((pyridin-2-ylmethyl)amino)pyridin-4-yl)oxy)naphthalen-1-yl)ureido)benzyl)acetamide], the “% β-catenin induction” value in the assay with d-U937 cells (test compound 1 μg/mL) worked out at 11.5%; with d-U937 cells (test compound 5 μg/mL), 41.5%; in the assay with d-U937 cells (test compound 10 μg/mL), 57.5%.
With `COCCOCCOCCOc1cc(Nc2cc(Oc3ccc(NC(=O)Nc4cc(C(C)(C)C)cc(P(C)(C)=O)c4OC)c4ccccc34)ccn2)cc(OC)c1` [Example 2, 1-(5-(tert-Butyl)-3-(dimethylphosphoryl)-2-methoxyphenyl)-3-(4-((2-((3-methoxy-5-(2-(2-(2-methoxyethoxy)ethoxy)ethoxy)phenyl)amino)pyridin-4-yl)oxy)naphthalen-1-yl)urea], the IC50 in the assay on HT29 cells stood at 1.7 nM. The “% β-catenin induction” value in the assay on d-U937 cells (test compound 1 μg/mL) worked out at 4.0%; with d-U937 cells (test compound 5 μg/mL), 32.5%; with d-U937 cells (test compound 10 μg/mL), 31.5%.
Take `COCCOCCOCCOc1cc(Nc2nccc(Oc3ccc(NC(=O)Nc4cc(C(C)(C)C)cc(C(=O)NCCN5CCOCC5)c4OC)c4ccccc34)n2)cc(OC)c1` [Example 8, 5-(tert-Butyl)-2-methoxy-3-(3-(4-((2-((3-methoxy-5-(2-(2-(2-methoxyethoxy)ethoxy)-ethoxy)phenyl)amino)pyrimidin-4-yl)oxy)naphthalen-1-yl)ureido)-N-(2-morpholinoethyl)-benzamide]: the “% β-catenin induction” value was 2.5% in the assay on d-U937 cells (test compound 1 μg/mL), 22.5% with d-U937 cells (test compound 5 μg/mL) and 26.5% in the assay with d-U937 cells (test compound 10 μg/mL).
For `COc1c(CP(C)(C)=O)cc(C(C)(C)C)cc1NC(=O)Nc1ccc(Oc2ccnc(Nc3ccccc3)c2)c2ccccc12` [Example 24, 1-(5-(tert-Butyl)-3-((dimethylphosphoryl)methyl)-2-methoxyphenyl)-3-(4-((2-(phenylamino)-pyridin-4-yl)oxy)naphthalen-1-yl)urea] the same measures were −3.0%, 13.0% and 16.5%.
With `COc1c(C[S+](C)[O-])cc(C(C)(C)C)cc1NC(=O)Nc1ccc(Oc2ccnc(Nc3ccccc3)c2)c2ccccc12` (stereo not drawn) [Example 25, 1-(5-(tert-Butyl)-2-methoxy-3-((methylsulfinyl)methyl)phenyl)-3-(4-((2-(phenylamino)pyridin-4-yl)oxy)naphthalen-1-yl)urea], the “% β-catenin induction” value in the assay on d-U937 cells (test compound 1 μg/mL) stood at 1.0%; in the assay on d-U937 cells (test compound 5 μg/mL), 8.0%; in the assay on d-U937 cells (test compound 10 μg/mL), 17.5%.
For `COc1c(NC(=O)Nc2ccc(Oc3ccnc(Nc4cc(C)cc(C)c4)c3)c3ccccc23)cc(C(C)(C)C)cc1P(C)(C)=O` [Example 28, 1-(5-(tert-Butyl)-3-(dimethylphosphoryl)-2-methoxyphenyl)-3-(4-((2-((3,5-dimethylphenyl)-amino)pyridin-4-yl)oxy)naphthalen-1-yl)urea] the same measures were 3.0%, 6.7% and 11.3%.
With `COc1cccc(Nc2cc(Oc3ccc(NC(=O)Nc4cc(C(C)(C)C)cc(CC(N)=O)c4OC)c4ccccc34)ccn2)c1` [Example 33, 2-(5-(tert-Butyl)-2-methoxy-3-(3-(4-((2-((3-methoxyphenyl)amino)pyridin-4-yl)oxy)naphthalen-1-yl)ureido)phenyl)acetamide], the figures for the “% β-catenin induction” value in the assay with d-U937 cells (test compound 1 μg/mL), with d-U937 cells (test compound 5 μg/mL) and in the assay on d-U937 cells (test compound 10 μg/mL) were −1.0%, 3.5% and 9.5%, respectively.
Take `COc1c(CNC(C)=O)cc(C(C)(C)C)cc1NC(=O)Nc1ccc(Oc2ccnc(Nc3ccccc3)c2)c2ccccc12` [Example 35, N-(5-(tert-Butyl)-2-methoxy-3-(3-(4-((2-(phenylamino)pyridin-4-yl)oxy)naphthalen-1-yl)ureido)benzyl)acetamide]: the “% β-catenin induction” value in the assay on d-U937 cells (test compound 1 μg/mL) came out at 5.5%; in the assay on d-U937 cells (test compound 5 μg/mL) it was 16.5%; with d-U937 cells (test compound 10 μg/mL) it was 23.5%.
